Experimental data published in patent US20240116946A1 (Gilead Sciences, Inc., priority 2022, published 2024).
Like-named read-outs stand apart in the source and are kept apart here.

Experiments:
[1] = system: SARS-CoV-2-NLuc; experiment: microbe, parasite or virus in culture; assay type: cell-based, SARS Coronavirus 2
[2] = target: recombinant SARS-CoV-2 Main protease (Mpro) (Severe acute respiratory syndrome coronavirus 2 (2019-nCoV) (SARS-CoV-2), UniProt P0DTD1); experiment: Cov Mpro Biochemical IC50 Assay; settings: read-out: MPro IC50
[3] = Severe acute respiratory syndrome coronavirus, 48 h, read-out: MPro EC50
[4] = recombinant SARS-CoV-2 Mpro 7.5 nM, fluorogenic peptide substrate 40 μM
[5] = Severe acute respiratory syndrome coronavirus, 48 h; read-out: MPro EC50
[6] = recombinant SARS-CoV-2 Mpro, fluorogenic peptide substrate

CN(CCO)c1ccc2cncc(-n3c(=O)[nH]c4cc(-c5ccccc5Cl)sc4c3=O)c2c1 [Example 404]
EC50 [1, 3]: 37.4 nM
IC50 [2, 4]: 6.49 nM

COc1cc(-c2cc3c(s2)c(=O)n(-c2cncc(Cl)c2C)c(=O)n3CCC#N)c(Cl)cc1F [Example 927, 3-[6-(2-chloro-4-fluoro-5-methoxy-phenyl)-3-(5-chloro-4-methyl-3-pyridyl)-2,4-dioxo-thieno[3,2-d]pyrimidin-1-yl]propanenitrile]
EC50 [1, 3]: 6.88 nM
IC50 [2, 4]: 7.02 nM

Cn1ncc2cncc(-n3c(=O)c4sc(-c5ccc(F)cc5C#N)cc4n(CCC#N)c3=O)c21 [Example 785]
EC50 [1, 3]: 137 nM
IC50 [2, 4]: 37.8 nM

COc1cnc(C#N)c(-c2cc3c(s2)c(=O)n(-c2cncc4ccccc24)c(=O)n3CCC#N)c1 (single isomer, unassigned) [Example 1092, 3-(1-(2-cyanoethyl)-3-(isoquinolin-4-yl)-2,4-dioxo-1,2,3,4-tetrahydrothieno[3,2-d]pyrimidin-6-yl)-5-methoxypicolinonitrile]
EC50 ([1]; read-out: MPro EC50): 11.2 nM
IC50 [2, 4]: 5.1 nM

Cc1ccc(C#N)cc1-c1cc2c(s1)c(=O)n(-c1cncc3ccccc13)c(=O)n2CCC#N [Example 810]
EC50 [1, 5]: 86.9 nM
IC50 [2, 4]: 19.8 nM

COc1cc(-c2ccc3c(=O)n(-c4cncc5ccccc45)c(=O)[nH]c3c2)c(Cl)cc1C [Example 250]
EC50 [1, 3]: 460 nM
IC50 [2, 6]: 1210 nM

COc1ccc(Cn2c(=O)n(-c3cncc4ccccc34)c(=O)c3sc(-c4cccc5c4CCC5)cc32)cc1 [Example 167, 6-(2,3-dihydro-1H-inden-4-yl)-3-(isoquinolin-4-yl)-1-(4-methoxybenzyl)thieno[3,2-d]pyrimidine-2,4(1H,3H)-dione]
EC50 [1, 3]: 4510 nM
IC50 [2, 6]: 49700 nM

COc1cc(-c2cc3c(s2)c(=O)n(-c2cncc4ccc(C#CC(C)(C)O)cc24)c(=O)n3CCC#N)c(Cl)cc1F [Example 947]
EC50 [1, 3]: 14.2 nM
IC50 [2, 4]: 7.28 nM

N#Cc1ncccc1-c1ccc2c(=O)n(-c3cncc4ccccc34)c(=O)[nH]c2c1 [Example 62]
EC50 [1, 3]: 3150 nM
IC50 [2, 6]: 904 nM

O=c1[nH]cc(-c2cc3[nH]c(=O)n(-c4cncc5ccccc45)c(=O)c3s2)c(=O)[nH]1 [Example 20]
EC50 [1, 3]: > 50000 nM
IC50 [2, 6]: 8620 nM

CC(C)Oc1cncc(-n2c(=O)[nH]c3cc(-c4ccccc4Cl)sc3c2=O)c1 [Example 382]
EC50 [1, 3]: 208 nM
IC50 [2, 6]: 4600 nM

O=c1[nH]c2cc(-c3c(Cl)cccc3CO)ccc2c(=O)n1-c1cncc2ccccc12 [Example 99]
EC50 [1, 3]: 492 nM
IC50 [2, 6]: 216 nM

N#CCCn1c(=O)n(-c2cncc3cccc(F)c23)c(=O)c2sc(-c3ccccc3C#N)cc21 [Example 1085]
EC50 [1, 3]: 41.6 nM
IC50 [2, 4]: 23.1 nM

CNC(=O)CCn1c(=O)n(-c2cncc3ccccc23)c(=O)c2sc(-c3ccccc3Cl)cc21 [Example 613, 3-(6-(2-chlorophenyl)-3-(isoquinolin-4-yl)-2,4-dioxo-3,4-dihydrothieno[3,2-d]pyrimidin-1(2H)-yl)-N-methylpropanamide]
EC50 [1, 5]: 91.9 nM
IC50 [2, 4]: 68.6 nM

COc1ccc(Cl)c(-c2cc3[nH]c(=O)n(-c4cncc5ccc(F)cc45)c(=O)c3s2)c1 [Example 623, 6-(2-chloro-5-methoxy-phenyl)-3-(6-fluoro-4-isoquinolyl)-1H-thieno[3,2-d]pyrimidine-2,4-dione]
EC50 [1, 5]: 30 nM
IC50 [2, 4]: 11.5 nM

COc1cc(-c2cc3[nH]c(=O)n(-c4cncc5c(CO)nn(C)c45)c(=O)c3s2)c(Cl)cc1F [Example 699]
EC50 [1, 3]: 470 nM
IC50 [2, 4]: 10.6 nM

NC(=O)c1ccccc1-c1cnc2c(=O)n(-c3cncc4ccccc34)c(=O)[nH]c2c1 [Example 70]
EC50 [1, 3]: > 50000 nM
IC50 [2, 6]: 2680 nM

O=c1[nH]c2cc(-c3cc(C(F)(F)F)ccc3Cl)ccc2c(=O)n1-c1cncc2ccccc12 [Example 180]
EC50 [1, 3]: 1960 nM
IC50 [2, 6]: 3740 nM

Cc1noc(C)c1-c1cc2[nH]c(=O)n(-c3cncc4cnn(C)c34)c(=O)c2s1 [Example 805]
EC50 [1, 5]: > 1000 nM
IC50 [2, 4]: 701 nM

COc1cc(-c2cc3[nH]c(=O)n(-c4cncc5cnn(C)c45)c(=O)c3s2)c(Cl)cc1Cl [Example 667]
EC50 [1, 3]: 18.7 nM
IC50 [2, 4]: 14 nM

O=C1NCc2c1cccc2-c1cccc(Cl)c1-c1ccc2c(=O)n(-c3cncc4ccccc34)c(=O)[nH]c2c1 [Example 193]
EC50 [1, 3]: 65.6 nM
IC50 [2, 6]: 7.69 nM

COCCOc1c(C)cncc1-n1c(=O)[nH]c2cc(-c3ccccc3Cl)sc2c1=O [Example 214]
EC50 [1, 5]: 20.1 nM
IC50 [2, 6]: 11.1 nM

COc1cc(-c2cc3[nH]c(=O)n(-c4cncc5cccc(C)c45)c(=O)c3s2)c(Cl)cc1F [Example 560]
EC50 [1, 3]: 6.1 nM
IC50 [2, 4]: < 2.54 nM

O=C1NCc2ccc(-c3cccc(Cl)c3-c3ccc4c(=O)n(-c5cncc6ccccc56)c(=O)[nH]c4c3)cc21 [Example 236]
EC50 [1, 3]: 228 nM
IC50 [2, 6]: 86.8 nM

O=c1c2sc(-c3ccccc3Cl)cc2n(CC2CCCC2)c(=O)n1-c1cncc2ccccc12 [Example 4]
EC50 [1, 3]: 892 nM
IC50 [2, 6]: 792 nM

COCc1ccccc1-c1ccc2c(=O)n(-c3cncc4ccccc34)c(=O)[nH]c2c1 [Example 54]
EC50 [1, 3]: 1630 nM
IC50 [2, 6]: 741 nM

COc1ccc(C#N)c(-c2cc3[nH]c(=O)n(-c4cncc5nc(C67CC(F)(C6)C7)n(C)c45)c(=O)c3s2)c1 [Example 437]
EC50 [1, 3]: 10600 nM
IC50 [2, 4]: 535 nM

COc1cc(-c2cc3c(s2)c(=O)n(-c2cncc(C)n2)c(=O)n3CCC#N)c(Cl)cc1F [Example 894]
EC50 [1, 3]: 6.55 nM
IC50 [2, 4]: 3.2 nM

O=c1c2sc(-c3ccccc3Cl)cc2n(Cc2ccnnc2)c(=O)n1-c1cncc2ccccc12 [Example 155]
EC50 [1, 3]: 125 nM
IC50 [2, 6]: 9.13 nM

CCS(=O)(=O)c1cccc(-c2cccc(Cl)c2-c2ccc3c(=O)n(-c4cncc5ccccc45)c(=O)[nH]c3c2)c1 [Example 284]
EC50 [1, 3]: 35.6 nM
IC50 [2, 6]: 25.8 nM

N#CCn1c(=O)n(-c2cncc3ccccc23)c(=O)c2sc(-c3cc(F)ccc3Cl)cc21 [Example 728]
EC50 [1, 3]: 4.34 nM
IC50 [2, 4]: 2.7 nM

COc1ccc(C#N)c(-c2cc3c(cc2F)c(=O)n(-c2cncc4ccccc24)c(=O)n3CC#N)c1 (atropisomer, axis not shown) [Example 701]
EC50 [1, 3]: 79.9 nM
IC50 [2, 4]: < 3.63 nM

CC1(O)CN(c2ccc3cncc(-n4c(=O)[nH]c5cc(-c6ccccc6Cl)sc5c4=O)c3c2)C1 [Example 390]
EC50 [1, 3]: 19.1 nM
IC50 [2, 6]: 11.6 nM

COc1cc(-c2cc3c(s2)c(=O)n(-c2cncc4cnn(C)c24)c(=O)n3C)c(Cl)cc1F [Example 898, 6-(2-chloro-4-fluoro-5-methoxyphenyl)-1-methyl-3-(1-methyl-1H-pyrazolo[4,3-c]pyridin-7-yl)thieno[3,2-d]pyrimidine-2,4(1H,3H)-dione]
EC50 [1, 3]: 11.9 nM
IC50 [2, 4]: 13 nM

Cn1cnc2cncc(-n3c(=O)c4sc(-c5ccc(F)cc5Cl)cc4n(CCC#N)c3=O)c21 [Example 851]
EC50 [1, 5]: 75.3 nM
IC50 [2, 4]: 22.3 nM

COc1cc(-c2ccc3c(=O)n(-c4cncc5ccccc45)c(=O)[nH]c3c2)c(C#N)cn1 [Example 335]
EC50 [1, 3]: 991 nM
IC50 [2, 6]: 290 nM

Cc1nc2cncc(-n3c(=O)c4sc(-c5ccccc5C#N)cc4n(CCC#N)c3=O)c2n1C [Example 854]
EC50 [1, 3]: > 1000 nM
IC50 [2, 4]: 93.3 nM

COc1cc(-c2cc3[nH]c(=O)n(-c4cncc(C)c4Cl)c(=O)c3s2)c(Cl)cc1F [Example 1080]
EC50 [1, 3]: 36 nM
IC50 [2, 4]: 20.4 nM

Cc1cnc(Cl)c(-c2cc3c(s2)c(=O)n(-c2cncc4cnn(C)c24)c(=O)n3CCC#N)c1 [Example 1020]
EC50 [1, 3]: 398 nM
IC50 [2, 4]: 107 nM

N#CCCn1c(=O)n(-c2cncc(N3CCOCC3)c2)c(=O)c2sc(-c3ccccc3C#N)cc21 [Example 817]
EC50 [1, 5]: > 1000 nM
IC50 [2, 4]: > 1000 nM

COc1ccc(Cl)c(-c2cc3[nH]c(=O)n(-c4cncc5cc(OC)ccc45)c(=O)c3s2)c1 [Example 624, 6-(2-chloro-5-methoxyphenyl)-3-(7-methoxyisoquinolin-4-yl)thieno[3,2-d]pyrimidine-2,4(1H,3H)-dione]
EC50 [1, 5]: 386 nM
IC50 [2, 4]: 88.7 nM

COc1cc(-c2cc3c(s2)c(=O)n(-c2cncc4cnn(C)c24)c(=O)n3CC#N)c(Cl)cc1F [Example 641, 2-[6-(2-chloro-4-fluoro-5-methoxy-phenyl)-3-(1-methylpyrazolo[4,3-c]pyridin-7-yl)-2,4-dioxo-thieno[3,2-d]pyrimidin-1-yl]acetonitrile]
EC50 [1, 5]: < 4.42 nM
IC50 [2, 4]: 2.2 nM

Cc1cc(-c2cccc(Cl)c2-c2ccc3c(=O)n(-c4cncc5ccccc45)c(=O)[nH]c3c2)cc(C#N)n1 [Example 317]
EC50 [1, 3]: 4.97 nM
IC50 [2, 6]: 11 nM

COc1ccc(Cl)c(-c2cc3[nH]c(=O)n(-c4cncc5c4OCCC5)c(=O)c3s2)c1 [Example 586]
EC50 [1, 3]: 54.3 nM
IC50 [2, 4]: 26.2 nM
